Source: patent US9650395B2, “Antibacterial compounds and methods for use” (PTC Therapeutics, Inc., priority 2011, dated 2017)
In brackets after ≈: the same amount, converted by molar mass. Read-outs that look alike come from different tables or passages of the source.

Experiments:
[1] = test system: Haemophilus influenzae (H. influenzae) 49247; assay: Antibacterial activity, MIC, H. influenzae 49247; type: cell-based; conditions: Haemophilus influenzae; H. influenzae 49247; read-out: MIC 49247
How it was run: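 A microbroth dilution method gave the minimum inhibitory concentration for each compound against H. influenzae 49247, a Gram-negative bacterium. MIC means the smallest concentration of drug at which no macroscopically visible bacterial growth appears under the conditions of the test.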

[2] = test system: quinolone resistant E. coli LZ3111; assay: Antibacterial activity, MIC, quinolone resistant E. coli LZ3111; type: cell-based, Escherichia coli; conditions: Escherichia coli, read-out: MIC, LZ3111
Excerpt: (§1) The antibacterial activity from a microbroth dilution method may be presented as the minimum inhibitory concentration (MIC in […]). The MIC value is the lowest concentration of a drug which prevents macroscopically visible bacterial growth under test conditions.
Mutations in these regions are known to confer a high level resistance to the quinolone class of antibiotics.

[3] = test system: E. coli ELZ4000 (MDR clinical isolate); assay: Antibacterial activity, MIC, MDR E. coli ELZ4000; type: cell-based, Escherichia coli; conditions: Escherichia coli; E. coli ELZ4000, MDR clinical isolate; read-out: MIC ELZ4000
[4] = test system: Moraxella catarrhalis (M. catarrhalis) 25238; assay: Antibacterial activity, MIC, M. catarrhalis 25238; type: cell-based; conditions: Moraxella catarrhalis, M. catarrhalis 25238; read-out: MIC 25238
[5] = test system: resistant K. pneumoniae MXX1232 (MDR clinical isolate); assay: Antibacterial activity, MIC, resistant K. pneumoniae MXX1232; type: cell-based, Klebsiella pneumoniae; conditions: Klebsiella pneumoniae; resistant K. pneumoniae MMX1232, MDR clinical isolate; read-out: MIC MMX1232
[6] = test system: E. coli ELZ4251 (MDR clinical isolate); assay: Antibacterial activity, MIC, MDR E. coli ELZ4251; type: cell-based, Escherichia coli; conditions: Escherichia coli, E. coli ELZ4251, MDR clinical isolate; read-out: MIC ELZ4251
[7] = test system: control Gram-negative E. coli 25922 strain; assay: Antibacterial activity, microbroth dilution MIC, E. coli 25922; type: cell-based, Escherichia coli; conditions: Escherichia coli; E. coli 25922, microbroth dilution; read-out: MIC, 25922
[8] = test system: resistant A. baumannii MXX2240 (MDR clinical isolate); assay: Antibacterial activity, MIC, resistant A. baumannii MXX2240; type: cell-based, Acinetobacter baumannii; conditions: Acinetobacter baumannii, resistant A. baumannii MMX2240, MDR clinical isolate; read-out: MIC MMX2240
[9] = test system: Klebsiella pneumoniae (K. pneumoniae) 35657; assay: Antibacterial activity, MIC, K. pneumoniae 35657; type: cell-based; conditions: Klebsiella pneumoniae
[10] = test system: Pseudomonas aeruginosa (P. aeruginosa) 27853; assay: Antibacterial activity, MIC, P. aeruginosa 27853; type: cell-based; conditions: Pseudomonas aeruginosa, P. aeruginosa 27853; read-out: MIC 27853
Excerpt: as §1
Antibacterial activity of test compounds against the Gram-negative bacterium Pseudomonas aeruginosa (P. aeruginosa) 27853 is shown in Table 5.

[11] = test system: super sensitive Gram-negative Escherichia coli (E. coli) BAS849; assay: Antibacterial activity, microbroth dilution MIC, E. coli BAS849; type: cell-based; conditions: Escherichia coli, read-out: MIC, BAS849
[12] = test system: Acinetobacter baumannii (A. baumannii) BAA747; assay: Antibacterial activity, MIC, A. baumannii BAA747; type: cell-based; conditions: Acinetobacter baumannii; A. baumannii BAA747; read-out: MIC BAA747
[13] = test system: Neisseria meningitidis (N. meningitidis) 13090; assay: Antibacterial activity, MIC, N. meningitidis 13090; type: cell-based; conditions: Neisseria meningitidis; N. meningitidis 13090; read-out: MIC 13090
[14] = test system: Gram-positive Staphylococcus aureus (S. aureus) 29213; assay: Antibacterial activity, microbroth dilution MIC, S. aureus 29213; type: cell-based; conditions: Staphylococcus aureus; S. aureus 29213, microbroth dilution; read-out: MIC, 29213
[15] = E. coli BAS849, microbroth dilution

Structure (SMILES)	MIC [1] [µg/mL]	MIC [2] [µg/mL]	MIC [3] [µg/mL]	MIC [4] [µg/mL]	MIC [5] [µg/mL]	MIC [6] [µg/mL]	MIC [7] [µg/mL]	MIC [8] [µg/mL]	MIC [9] [µg/mL]	MIC [10] [µg/mL]	MIC [11, 15] [µg/mL]	MIC [12] [µg/mL]	MIC [13] [µg/mL]	MIC [14] [µg/mL]	MIC [11] [µg/mL]
CCc1c(-c2ccc(N3CCC(C(C)(C)N)C3)cc2)[nH]c(=O)c(C(=O)O)c1O.Cl (centres unmarked) [Cpd 279, 6-{4-[3-(2-aminopropan-2-yl)pyrrolidin-1-yl]phenyl}-5-ethyl-4-hydroxy-2-oxo-1,2-dihydropyridine-3-carboxylic acid hydrochloride]	3.5 to 12.5	< 1	3.5 to 12.5	3.5 to 12.5	12.5 to 150	1 to 3.5	1 to 3.5	3.5 to 12.5	3.5 to 12.5	12.5 to 150	< 1	12.5 to 150	12.5 to 150	12.5 to 150	
CCc1c(-c2ccc(N3CCC(N(C)C)C3)cc2)[nH]c(=O)c(C(=O)O)c1O.Cl (centres unmarked) [Cpd 275, 6-{4-[3-(dimethylamino)pyrrolidin-1-yl]phenyl}-5-ethyl-4-hydroxy-2-oxo-1,2-dihydropyridine-3-carboxylic acid hydrochloride]	< 1	1 to 3.5	3.5 to 12.5	< 1	12.5 to 150	1 to 3.5	< 1	1 to 3.5	1 to 3.5	3.5 to 12.5	< 1	1 to 3.5	< 1	12.5 to 150	
CCc1c(-c2ccc(N3C[C@H]4CCC[C@H](N)[C@H]4C3)cc2)[nH]c(=O)c(C(=O)O)c1O.Cl [Cpd 258, 6-{4-[(3aR,4S,7aS)-4-aminooctahydro-2H-isoindol-2-yl]phenyl}-5-ethyl-4-hydroxy-2-oxo-1,2-dihydropyridine-3-carboxylic acid hydrochloride]	3.5 to 12.5	< 1	12.5 to 150	1 to 3.5	12.5 to 150	3.5 to 12.5	1 to 3.5	3.5 to 12.5	1 to 3.5	12.5 to 150	< 1	12.5 to 150	< 1	3.5 to 12.5	
CCc1cc(C(=O)O)c(=O)[nH]c1-c1ccc(N(C)C)cc1 [Cpd 88, 6-[4-(dimethylamino)phenyl]-5-ethyl-2-oxo-1,2-dihydropyridine-3-carboxylic acid]	3.5 to 12.5 (≈ 12.2 to 43.7 µM)	12.5 to 150 (≈ 43.7 to 524 µM)	12.5 to 150 (≈ 43.7 to 524 µM)	< 1	12.5 to 150 (≈ 43.7 to 524 µM)	12.5 to 150 (≈ 43.7 to 524 µM)	< 1	12.5 to 150 (≈ 43.7 to 524 µM)	< 1	3.5 to 12.5 (≈ 12.2 to 43.7 µM)	< 1	< 1	< 1	3.5 to 12.5 (≈ 12.2 to 43.7 µM)	
CCc1c(-c2ccc(N(C)C)nc2)[nH]c(=O)c(C(=O)O)c1O [Cpd 87, 6-[6-(dimethylamino)pyridin-3-yl]-5-ethyl-4-hydroxy-2-oxo-1,2-dihydropyridine-3-carboxylic acid]	1 to 3.5 (≈ 3.3 to 11.5 µM)	1 to 3.5 (≈ 3.3 to 11.5 µM)	1 to 3.5 (≈ 3.3 to 11.5 µM)	1 to 3.5 (≈ 3.3 to 11.5 µM)	12.5 to 150 (≈ 41.2 to 495 µM)	1 to 3.5 (≈ 3.3 to 11.5 µM)	12.5 to 150 (≈ 41.2 to 495 µM)	< 1	12.5 to 150 (≈ 41.2 to 495 µM)	12.5 to 150 (≈ 41.2 to 495 µM)	< 1	3.5 to 12.5 (≈ 11.5 to 41.2 µM)	< 1	12.5 to 150 (≈ 41.2 to 495 µM)	
CCc1c(-c2ccc(N3CCC(CNC)C3)cc2)[nH]c(=O)c(C(=O)O)c1O.Cl (centres unmarked) [Cpd 254, 5-ethyl-4-hydroxy-6-(4-{3-[(methylamino)methyl]pyrrolidin-1-yl}phenyl)-2-oxo-1,2-dihydropyridine-3-carboxylic acid hydrochloride]	12.5 to 150	3.5 to 12.5	12.5 to 150	12.5 to 150	12.5 to 150	3.5 to 12.5	1 to 3.5	12.5 to 150	3.5 to 12.5	3.5 to 12.5	< 1	3.5 to 12.5	1 to 3.5	12.5 to 150	
CCc1c(-c2ccc(N3C[C@H]4CC[C@@H](NC)[C@H]4C3)cc2)[nH]c(=O)c(C(=O)O)c1O.Cl [Cpd 256, 5-ethyl-4-hydroxy-6-{4-[(3aR,4R,6aS)-4-(methylamino)hexahydrocyclopenta[c]pyrrol-2(1H)-yl]phenyl}-2-oxo-1,2-dihydropyridine-3-carboxylic acid hydrochloride]	3.5 to 12.5	1 to 3.5	12.5 to 150	1 to 3.5	12.5 to 150	3.5 to 12.5	1 to 3.5	12.5 to 150	1 to 3.5	12.5 to 150	< 1	12.5 to 150	< 1	3.5 to 12.5	
CCc1c(-c2ccc(N3CCC(N4CCCC4)C3)cc2)[nH]c(=O)c(C(=O)O)c1O.Cl (centres unmarked) [Cpd 257, 6-[4-(1,3′-bipyrrolidin-1′-yl)phenyl]-5-ethyl-4-hydroxy-2-oxo-1,2-dihydropyridine-3-carboxylic acid hydrochloride]	1 to 3.5	3.5 to 12.5	3.5 to 12.5	1 to 3.5	12.5 to 150	1 to 3.5	< 1	12.5 to 150	1 to 3.5	12.5 to 150	< 1	1 to 3.5	< 1	12.5 to 150	
CCc1c(-c2ccc(N3C[C@H]4CCC[C@@H](NC)[C@H]4C3)cc2)[nH]c(=O)c(C(=O)O)c1O.Cl [Cpd 296, 5-ethyl-4-hydroxy-6-{4-[(3aR,4R,7aS)-4-(methylamino)octahydro-2H-isoindol-2-yl]phenyl}-2-oxo-1,2-dihydropyridine-3-carboxylic acid hydrochloride]	3.5 to 12.5	< 1	12.5 to 150	3.5 to 12.5	12.5 to 150	3.5 to 12.5	1 to 3.5	3.5 to 12.5	1 to 3.5	12.5 to 150	< 1	12.5 to 150	< 1	1 to 3.5	
CCc1c(-c2ccc(N3C[C@H]4CCC[C@@H](N)[C@H]4C3)cc2)[nH]c(=O)c(C(=O)O)c1O.O=C(O)C(F)(F)F [Cpd 262, 6-{4-[(3aR,4R,7aS)-4-aminooctahydro-2H-isoindol-2-yl]phenyl}-5-ethyl-4-hydroxy-2-oxo-1,2-dihydropyridine-3-carboxylic acid trifluoroacetate]	3.5 to 12.5	< 1	1 to 3.5	3.5 to 12.5	12.5 to 150	1 to 3.5	1 to 3.5	1 to 3.5	1 to 3.5	12.5 to 150		3.5 to 12.5	1 to 3.5	3.5 to 12.5	< 1
